Assay results taken from patent publication US20060234980A1, “Antiinflammatory agent, agent for preventing/ameliorating allergic diseases and functional food” (priority 2002, published 2006).

System: oral sensitization model of BALB/c mouse
Test: Oral sensitization model with OVA, oligosaccharide-added feeds, serum antigen-specific antibody titer (ELISA)
Assay type: in vivo
Conditions: 5% (w/w) in feed
Description: An oral sensitization model of BALB/c mouse using ovalbumin (OVA) as a model antigen was produced, and influences exerted by various oligosaccharides added to feed on serum antibody titer were compared. Until initiation of the experiment, 12-week old male BALM/c mice were allowed to freely take AIN-93G as a base feed (α-corn starch, 529.5 g/kg; casein, 200 g/kg; sucrose, 100 g/kg; soy bean oil, 70 g/kg; cellulose, 50 g/kg; mineral mixing, 35 g/kg; vitamin mixing, 10 g/kg; L-cystine, 3 g/kg; choline bitartarate, 2.5 g/kg) . After pre-breeding for 1 week, an oligosaccahide no-[…] (base seed) group, and feeds obtained by substituting 5% (w/w) of the base feed with raffinose (RAF), α-GOS (hereinafter, referred to simply as GOS), fructooligosaccharide (FOS), xylooligosaccharide (XOS), that is, five groups were prepared, and mice were allowed to freely take these feeds for 8weeks. During this, an aqueous OVA solution (1 mg/0.2 mL) was orally administered forcibly everyday. After initiation of aministration of OVA, blood was collected from orbital venous plexus every one week, and centrifugally separated to obtain sera. Sear of one group (9/group) were pooled, and subjected to quantification of antigen-specific antibody titer by ELISA.

OC[C@H]1O[C@H](OC[C@H]2O[C@H](O[C@]3(CO)O[C@H](CO)[C@@H](O)[C@@H]3O)[C@H](O)[C@@H](O)[C@@H]2O)[C@H](O)[C@@H](O)[C@H]1O [RAF, raffinose]
effect on increase of IgE (overall conclusion) (8 weeks daily oral OVA): effect of delaying increase
effect on increase of IgG (overall conclusion) (8 weeks daily oral OVA): effect of delaying increase
antigen-specific IgG in blood (at 2 to 5 weeks): changed lower than the oligosaccharide no-addition feed group
antigen-specific IgE in blood (at 8 weeks): showed the same high value as that of the FOS group
antigen-specific IgE in blood (until 7 weeks): changed lower than the oligosaccharide no-addition feed group and the FOS feed group
